These results are taken from patent US20230167073A1 (Teijin Pharma Limited, priority 2020, published 2023).

SMILES strings stand for the structures.

The test has as its target T1, Human TRPC6 (Homo sapiens, UniProt Q9Y210).
T1 construct: expressed in transfected cells
T1 sequence (Q9Y210 1-931): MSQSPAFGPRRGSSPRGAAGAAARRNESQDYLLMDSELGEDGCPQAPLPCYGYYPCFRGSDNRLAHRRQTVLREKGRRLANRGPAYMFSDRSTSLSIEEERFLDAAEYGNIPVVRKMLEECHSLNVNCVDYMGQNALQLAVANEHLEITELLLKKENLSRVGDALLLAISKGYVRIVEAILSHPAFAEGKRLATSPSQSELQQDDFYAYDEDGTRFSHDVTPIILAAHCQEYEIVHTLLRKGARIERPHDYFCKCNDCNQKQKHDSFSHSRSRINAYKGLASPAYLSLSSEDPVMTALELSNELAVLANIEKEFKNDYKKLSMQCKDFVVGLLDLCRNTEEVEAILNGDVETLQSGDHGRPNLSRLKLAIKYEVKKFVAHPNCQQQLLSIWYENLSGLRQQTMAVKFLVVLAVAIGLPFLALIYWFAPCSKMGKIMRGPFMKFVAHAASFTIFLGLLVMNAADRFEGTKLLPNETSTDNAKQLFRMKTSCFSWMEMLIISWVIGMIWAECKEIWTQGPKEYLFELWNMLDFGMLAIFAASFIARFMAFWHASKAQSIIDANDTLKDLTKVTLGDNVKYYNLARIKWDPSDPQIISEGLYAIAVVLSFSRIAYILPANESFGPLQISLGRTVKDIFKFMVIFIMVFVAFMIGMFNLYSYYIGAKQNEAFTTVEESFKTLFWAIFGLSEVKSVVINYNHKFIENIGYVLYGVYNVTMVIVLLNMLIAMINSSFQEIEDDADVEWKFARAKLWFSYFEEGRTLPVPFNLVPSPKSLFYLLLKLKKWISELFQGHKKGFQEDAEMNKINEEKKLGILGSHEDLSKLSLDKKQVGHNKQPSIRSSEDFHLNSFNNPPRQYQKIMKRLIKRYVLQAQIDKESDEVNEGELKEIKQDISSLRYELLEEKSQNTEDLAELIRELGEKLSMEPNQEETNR
The test is described as follows: Evaluation of TRPC6 channel inhibitory activity (1), FLIPR Calcium 5 Assay Kit, OAG stimulation (Compound Nos. 1-1293). In kind it is cell-based. The note with it: Human TRPC6 stably-expressing cells, OAG 30 μM, FLIPR Calcium 5 Assay Kit; read-out: Inhibitory activity (pIC50 class) (converted). The method, boiled down: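 Readout is pIC50 from four-parameter logistic fitting of inhibition of the OAG-evoked (30 μM final) fluorescence calcium signal. Human TRPC6 stable cells are dye-loaded with probenecid, and compound is applied 20 min ahead of agonist.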

On to `CN(C)c1cc(Oc2cc(C#N)ccc2-c2ccc([C@H](F)CN)cn2)n(C)n1` [compound 909, 4-[5-[(1S)-2-amino-1-fluoroethyl]pyridin-2-yl]-3-[5-(dimethylamino)-2-methylpyrazol-3-yl]oxybenzonitrile], for which the IC50 was less than 10 nM.

With `CN(C)c1cc(Oc2cc(C#N)ccc2-c2ccc([C@@H](F)CN)cn2)n(C)n1` [compound 910, 4-[5-[(1R)-2-amino-1-fluoroethyl]pyridin-2-yl]-3-[5-(dimethylamino)-2-methylpyrazol-3-yl]oxybenzonitrile], the IC50 is less than 10 nM.

As for `N#Cc1ccc(-c2ncc(CCN)cn2)c(Oc2cnn(CC(F)(F)F)c2)c1` [compound 911, 4-[5-(2-aminoethyl)pyrimidin-2-yl]-3-[1-(2,2,2-trifluoroethyl)pyrazol-4-yl]oxybenzonitrile], the IC50 was 10 to 1000 nM.

As for `N#Cc1ccc(-c2ncc(CCN)cn2)c(Oc2cnn(-c3ccccn3)c2)c1` [compound 912, 4-[5-(2-aminoethyl)pyrimidin-2-yl]-3-(1-pyridin-2-ylpyrazol-4-yl)oxybenzonitrile], the IC50 was less than 10 nM.

On to `CCN(CC)c1cc(Oc2cc(C#N)ccc2-c2ncc([C@H](F)CN)cn2)n(C)n1` [compound 913, 4-[5-[(1S)-2-amino-1-fluoroethyl]pyrimidin-2-yl]-3-[5-(diethylamino)-2-methylpyrazol-3-yl]oxybenzonitrile], for which the IC50 is less than 10 nM.

With `CCN(CC)c1cc(Oc2cc(C#N)ccc2-c2ncc([C@@H](F)CN)cn2)n(C)n1` [compound 914, 4-[5-[(1R)-2-amino-1-fluoroethyl]pyrimidin-2-yl]-3-[5-(diethylamino)-2-methylpyrazol-3-yl]oxybenzonitrile], the IC50 is less than 10 nM.

Regarding `CCN(CC)c1cc(Oc2cc(C#N)ccc2-c2ccc([C@H](F)CN)cn2)n(C)n1` [compound 915, 4-[5-[(1S)-2-amino-1-fluoroethyl]pyridin-2-yl]-3-[5-(diethylamino)-2-methylpyrazol-3-yl]oxybenzonitrile], the IC50 was less than 10 nM.

For `CCN(CC)c1cc(Oc2cc(C#N)ccc2-c2ccc([C@@H](F)CN)cn2)n(C)n1` [compound 916, 4-[5-[(1R)-2-amino-1-fluoroethyl]pyridin-2-yl]-3-[5-(diethylamino)-2-methylpyrazol-3-yl]oxybenzonitrile], the IC50 is less than 10 nM.

As for `N#Cc1ccc(-c2ncc(CCN)cn2)c(Oc2cncc(N3CCOCC3)c2)c1` [compound 917, 4-[5-(2-aminoethyl)pyrimidin-2-yl]-3-(5-morpholin-4-ylpyridin-3-yl)oxybenzonitrile], the IC50 was 10 to 1000 nM.

`N#Cc1ccc(-c2ncc(CN)cn2)c(Oc2cncc(N3CCOCC3)c2)c1` [compound 918, 4-[5-(aminomethyl)pyrimidin-2-yl]-3-(5-morpholin-4-ylpyridin-3-yl)oxybenzonitrile]: the IC50 was more than 1000 nM.

For the compound `Cc1ncc(N2CCOCC2)cc1Oc1cc(C#N)ccc1-c1ncc(CCN)cn1` [compound 919, 4-[5-(2-aminoethyl)pyrimidin-2-yl]-3-(2-methyl-5-morpholin-4-ylpyridin-3-yl)oxybenzonitrile], the IC50 was 10 to 1000 nM.

`Cc1ncc(N2CCOCC2)cc1Oc1cc(C#N)ccc1-c1ncc(CN)cn1` [compound 920, 4-[5-(aminomethyl)pyrimidin-2-yl]-3-(2-methyl-5-morpholin-4-ylpyridin-3-yl)oxybenzonitrile]: the IC50 is more than 1000 nM.

For the compound `Cc1nc(N2CCOCC2)ccc1Oc1cc(C#N)ccc1-c1ncc(CCN)cn1` [compound 921, 4-[5-(2-aminoethyl)pyrimidin-2-yl]-3-(2-methyl-6-morpholin-4-ylpyridin-3-yl)oxybenzonitrile], the IC50 was more than 1000 nM.

On to `Cc1nc(N2CCOCC2)ccc1Oc1cc(C#N)ccc1-c1ncc(CN)cn1` [compound 922, 4-[5-(aminomethyl)pyrimidin-2-yl]-3-(2-methyl-6-morpholin-4-ylpyridin-3-yl)oxybenzonitrile], for which the IC50 was more than 1000 nM.
